Target: T1, MST1R (RON) (Homo sapiens, UniProt Q04912)
T1 construct: purchased Thermo Fisher Scientific (Life Technologies) SelectScreen
Experiment: SelectScreen Z'LYTE
Type: biochemical
In short: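 NU5455 was profiled across the SelectScreen Broad panel of kinase activity and binding assays. Z'LYTE reactions such as CSF1R ran at apparent Km ATP, while the Adapta CAMK1 assay used ATP listed as 10. Values are given as percent.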

T1 sequence (Q04912 25-1400): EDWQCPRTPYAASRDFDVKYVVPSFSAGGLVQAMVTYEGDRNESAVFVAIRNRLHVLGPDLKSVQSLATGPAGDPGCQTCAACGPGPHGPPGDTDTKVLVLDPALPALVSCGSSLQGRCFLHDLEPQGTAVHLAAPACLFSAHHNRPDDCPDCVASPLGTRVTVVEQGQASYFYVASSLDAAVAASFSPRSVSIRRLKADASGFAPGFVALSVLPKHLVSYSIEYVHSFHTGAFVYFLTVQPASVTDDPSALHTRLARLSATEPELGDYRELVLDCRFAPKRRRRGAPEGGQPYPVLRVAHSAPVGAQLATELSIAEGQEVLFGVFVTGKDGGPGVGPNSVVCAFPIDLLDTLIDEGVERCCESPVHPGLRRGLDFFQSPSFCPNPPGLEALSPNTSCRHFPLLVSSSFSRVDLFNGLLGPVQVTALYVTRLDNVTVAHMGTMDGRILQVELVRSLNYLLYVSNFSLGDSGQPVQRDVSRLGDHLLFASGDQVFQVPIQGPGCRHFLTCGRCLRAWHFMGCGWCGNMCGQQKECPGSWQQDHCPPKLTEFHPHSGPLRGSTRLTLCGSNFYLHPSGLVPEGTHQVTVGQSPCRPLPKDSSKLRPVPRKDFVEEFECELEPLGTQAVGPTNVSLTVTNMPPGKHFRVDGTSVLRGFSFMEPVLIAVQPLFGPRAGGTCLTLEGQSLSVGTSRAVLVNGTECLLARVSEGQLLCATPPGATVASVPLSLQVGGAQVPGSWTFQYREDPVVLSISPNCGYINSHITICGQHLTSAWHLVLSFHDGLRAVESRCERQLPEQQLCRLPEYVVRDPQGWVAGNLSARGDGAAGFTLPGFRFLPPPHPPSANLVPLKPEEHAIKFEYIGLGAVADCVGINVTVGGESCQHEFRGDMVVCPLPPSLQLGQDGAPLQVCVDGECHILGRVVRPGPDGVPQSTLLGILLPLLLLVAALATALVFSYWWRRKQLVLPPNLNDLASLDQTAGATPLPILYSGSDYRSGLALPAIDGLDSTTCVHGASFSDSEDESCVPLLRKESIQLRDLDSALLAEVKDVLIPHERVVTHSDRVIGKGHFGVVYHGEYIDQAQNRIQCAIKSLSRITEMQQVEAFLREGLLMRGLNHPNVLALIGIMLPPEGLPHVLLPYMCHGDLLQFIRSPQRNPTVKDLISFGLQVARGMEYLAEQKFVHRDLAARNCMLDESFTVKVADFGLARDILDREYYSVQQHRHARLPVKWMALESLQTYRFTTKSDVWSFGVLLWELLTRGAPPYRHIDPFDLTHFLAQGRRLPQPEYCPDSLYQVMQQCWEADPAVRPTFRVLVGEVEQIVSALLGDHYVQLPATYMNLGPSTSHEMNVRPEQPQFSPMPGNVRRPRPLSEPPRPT

CN(C(=O)CN1CCOCC1)c1ccc2sc3c(-c4cccc5c(=O)cc(N6CC7CCC(C6)O7)oc45)cccc3c2c1 [NU5455]
inhibition at 1 µM: -13.4%
